Measured values from paper PMC8086144, “A novel peptide antagonist of the human growth hormone receptor” (The Journal of Biological Chemistry, 2021).

Biological target: T1, hPRLR (Homo sapiens, UniProt P16471)
T1 construct: T84 cells express high levels of hPRLR relative to hGHR (>1300:1); host or cells: T84 (human colon cancer), MALME-3M (human melanoma)
T1 sequence (P16471 25-622): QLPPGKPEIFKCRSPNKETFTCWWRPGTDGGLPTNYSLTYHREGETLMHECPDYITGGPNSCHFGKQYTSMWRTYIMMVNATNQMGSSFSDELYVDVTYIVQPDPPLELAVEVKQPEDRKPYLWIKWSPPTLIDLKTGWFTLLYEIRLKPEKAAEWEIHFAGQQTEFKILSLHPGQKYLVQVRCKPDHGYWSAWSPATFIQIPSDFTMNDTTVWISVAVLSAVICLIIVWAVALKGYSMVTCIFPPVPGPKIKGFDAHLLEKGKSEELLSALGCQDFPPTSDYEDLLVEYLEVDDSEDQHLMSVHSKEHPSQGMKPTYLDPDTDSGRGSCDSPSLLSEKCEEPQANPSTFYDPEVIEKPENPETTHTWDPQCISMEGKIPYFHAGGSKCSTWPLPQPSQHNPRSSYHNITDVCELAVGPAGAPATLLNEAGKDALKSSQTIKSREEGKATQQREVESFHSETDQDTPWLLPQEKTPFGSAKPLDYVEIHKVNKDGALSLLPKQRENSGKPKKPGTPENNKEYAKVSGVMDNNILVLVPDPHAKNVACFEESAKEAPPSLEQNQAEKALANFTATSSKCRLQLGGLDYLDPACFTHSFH
Test: hPRL-induced pSTAT5 in T84 cells, Western blot
Format: cell-based
Settings: 2.5 nM hPRL, 20 min, S1H concentration not given
Procedure: SK-MEL-28, MALME-3M, and T84 cells were grown and maintained in Eagle's Minimal Essential Medium. IM9 and L cells were grown in RPMI-1640 media and Dulbecco's modified Eagle's medium, respectively. All growth media was supplemented with 10% fetal bovine serum and 1× antibiotic-antimycotic […] solution. Cells were grown at 37 °C under a 5% CO2 atmosphere in a humidified incubator, and growth media was replaced every 48 h during incubation. No hGH was present in or added to the growth media unless specifically indicated. […]
Following treatment, the cells were harvested at the indicated time points, and the total protein was extracted. […] Sample protein concentration was quantified using a Bradford assay with bovine serum albumin as the protein standard. Absorbance at 595 nm was measured using a Spectramax 250 multimode plate reader (Molecular Devices) and processed using SoftmaxPro v4.7.1 software.
Cytosolic fractions from treated cells were thawed on ice, and 80 μg protein was loaded onto polyacrylamide gels for separation by SDS-PAGE. […] Chemiluminescence signals were detected using a GelDoc (BioRad) fluorescence imager. […]

- inhibition of hPRL-induced pSTAT5: 13%
Structure (SMILES): CC[C@H](C)[C@H](NC(=O)[C@H](Cc1ccc(O)cc1)NC(C)=O)C(=O)N1CCC[C@H]1C(=O)N[C@@H](CCCCN)C(=O)N[C@@H](CCC(=O)O)C(=O)N[C@@H](CCC(N)=O)C(=O)N[C@@H](CCCCN)C(=O)N[C@@H](Cc1ccc(O)cc1)C(=O)N[C@@H](CO)C(=O)N[C@@H](Cc1ccccc1)C(=O)N[C@@H](CC(C)C)C(=O)N[C@@H](CCC(N)=O)C(=O)N[C@@H](CC(N)=O)C(=O)N1CCC[C@H]1C(=O)N[C@@H](CCC(N)=O)C(=O)N[C@H](C(N)=O)[C@@H](C)O [S1H]
